Test results published in the supplement of paper PMC11451515.

Test system: NOMO1
Assay: cell viability relative to DMSO control; higher = less cytotoxic
Details: 48 h
How it was run: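 In 1536-well plates, 5 μl of leukemia cells were seeded per well: 500 cells/well for NOMO1 or SEM and 1000 cells/well for P12-Ichikawa. Each line had first been adapted for at least four passages in each medium. Library compounds in DMSO were pin-dosed at 11 threefold concentrations between 47 μM and 0.79 nM, and CellTiter-Glo One luminescence was read after 48 h at 37°C. Viability is a per-plate percentage relative to DMSO wells, with cell-free wells as background.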

[1] = HPLM + 10% dialyzed FBS, 0.000781 µM
[2] = HPLM + 10% dialyzed FBS, 0.00234 µM
[3] = HPLM + 10% dialyzed FBS, 0.00702 µM
[4] = HPLM + 10% dialyzed FBS, 0.0211 µM
[5] = HPLM + 10% dialyzed FBS, 0.0632 µM
[6] = HPLM + 10% dialyzed FBS, 0.19 µM
[7] = HPLM + 10% dialyzed FBS, 0.569 µM
[8] = HPLM + 10% dialyzed FBS, 1.71 µM
[9] = HPLM + 10% dialyzed FBS, 5.12 µM
[10] = HPLM + 10% dialyzed FBS, 15.4 µM
[11] = HPLM + 10% dialyzed FBS, 46.1 µM
[12] = RPMI 5 mM glucose + 10% FBS, 0.000781 µM
[13] = RPMI 5 mM glucose + 10% FBS, 0.00234 µM
[14] = RPMI 5 mM glucose + 10% FBS, 0.00702 µM
[15] = RPMI 5 mM glucose + 10% FBS, 0.0211 µM
[16] = RPMI 5 mM glucose + 10% FBS, 0.0632 µM
[17] = RPMI 5 mM glucose + 10% FBS, 0.19 µM
[18] = RPMI 5 mM glucose + 10% FBS, 0.569 µM
[19] = RPMI 5 mM glucose + 10% FBS, 1.71 µM
[20] = RPMI 5 mM glucose + 10% FBS, 5.12 µM
[21] = RPMI 5 mM glucose + 10% FBS, 15.4 µM
[22] = RPMI 5 mM glucose + 10% FBS, 46.1 µM
[23] = RPMI 5 mM glucose + 10% dialyzed FBS, 0.000781 µM
[24] = RPMI 5 mM glucose + 10% dialyzed FBS, 0.00234 µM
[25] = RPMI 5 mM glucose + 10% dialyzed FBS, 0.00702 µM
[26] = RPMI 5 mM glucose + 10% dialyzed FBS, 0.0211 µM
[27] = RPMI 5 mM glucose + 10% dialyzed FBS, 0.0632 µM
[28] = RPMI 5 mM glucose + 10% dialyzed FBS, 0.19 µM
[29] = RPMI 5 mM glucose + 10% dialyzed FBS, 0.569 µM
[30] = RPMI 5 mM glucose + 10% dialyzed FBS, 1.71 µM
[31] = RPMI 5 mM glucose + 10% dialyzed FBS, 5.12 µM
[32] = RPMI 5 mM glucose + 10% dialyzed FBS, 15.4 µM
[33] = RPMI 5 mM glucose + 10% dialyzed FBS, 46.1 µM

Structure (SMILES) | cell viability [1] [%] | cell viability [2] [%] | cell viability [3] [%] | cell viability [4] [%] | cell viability [5] [%] | cell viability [6] [%] | cell viability [7] [%] | cell viability [8] [%] | cell viability [9] [%] | cell viability [10] [%] | cell viability [11] [%] | cell viability [12] [%] | cell viability [13] [%] | cell viability [14] [%] | cell viability [15] [%] | cell viability [16] [%] | cell viability [17] [%] | cell viability [18] [%] | cell viability [19] [%] | cell viability [20] [%] | cell viability [21] [%] | cell viability [22] [%] | cell viability [23] [%] | cell viability [24] [%] | cell viability [25] [%] | cell viability [26] [%] | cell viability [27] [%] | cell viability [28] [%] | cell viability [29] [%] | cell viability [30] [%] | cell viability [31] [%] | cell viability [32] [%] | cell viability [33] [%]
CN1\N=C(N)/C2=C[N]([C@@H]3O[C@H](CO[P](O)(O)=O)[C@@H](O)[C@H]3O)C4=C2C1=NC=N4 | 108 | 111 | 124 | 111 | 104 | 88.6 | 74.6 | 67.7 | 59.5 | 30.1 | 16.2 | 109 | 107 | 112 | 99.9 | 99.2 | 89.6 | 93.7 | 77.3 | 84.1 | 52.1 | 50 | 98.8 | 114 | 104 | 105 | 94.7 | 82.3 | 72.2 | 61.5 | 52.6 | 38 | 30.6
CC(O)(C#Cc1ccc2c(c1)N(c1nc(N)ncc1Cl)CC2)c1nccs1 (stereo not given) | 98.7 | 119 | 132 | 104 | 130 | 131 | 130 | 134 | 152 | 136 | 87.5 |  |  |  |  |  |  |  |  |  |  |  | 124 | 113 | 136 | 131 | 135 | 135 | 135 | 127 | 138 | 147 | 110
O=C(Nc1ncc(-c2cc(C(F)F)nn2-c2c(Cl)cccc2Cl)s1)C1CC1 | 120 | 107 | 120 | 117 | 132 | 138 | 137 | 99.1 | 44.4 | 62.8 | 49 |  |  |  |  |  |  |  |  |  |  |  |  |  |  |  |  |  |  |  |  |  | 
CNC[C@H](O)c1cccc(O)c1 | 92.9 | 92.1 | 98.8 | 36.8 | 111 | 103 | 109 | 110 | 99 | 113 | 122 | 78.1 | 86.8 | 94.7 | 26.9 | 93 | 89.4 | 90.6 | 92.8 | 88.6 | 102 | 99 | 78.3 | 88.4 | 98.3 | 32.9 | 98 | 102 | 101 | 87.7 | 82.3 | 91.1 | 103
CCN(C(=O)C/1=C(O)/C2=C(C=CC=C2Cl)N(C)C1=O)C3=CC=CC=C3 | 95 | 106 | 97.6 | 99.3 | 87.4 | 84 | 96.6 | 34.9 | 12.5 | 3.29 | 3.67 | 80.5 | 88.8 | 93.4 | 93.8 | 96 | 81 | 90.6 | 43.7 | 15.8 | 2.47 | 2.24 | 96.2 | 89 | 94 | 97.2 | 103 | 83.8 | 91.9 | 53.5 | 22 | 2.48 | 2.14
COCCOc1nc(-c2ccc(Cl)c(Cl)c2)n(-c2ccc(NC(=O)CCl)cc2)n1 | 92.5 | 113 | 110 | 114 | 113 | 115 | 96.6 | 110 | 87.2 | 85 | 107 | 78.3 | 86.9 | 84.4 | 82.7 | 85 | 87.6 | 80.7 | 84.9 | 91.3 | 92.6 | 86.7 | 82.7 | 92.1 | 93.5 | 83.7 | 97.4 | 87.5 | 96.9 | 93.9 | 86.4 | 79.7 | 104
O=C1Nc2ccc(I)cc2/C1=C/c1cc(Br)c(O)c(Br)c1 | 111 | 96.5 | 109 | 106 | 109 | 111 | 98.6 | 99.9 | 118 | 101 | 78.9 | 86.6 | 98.1 | 96.5 | 102 | 96.2 | 100 | 96.8 | 97.6 | 102 | 88.6 | 83 | 95.4 | 93.3 | 90.9 | 92.8 | 92 | 85.9 | 104 | 96.8 | 101 | 95.3 | 76.6
C[C@]12CC[C@@H]3c4ccc(O)cc4CC[C@H]3[C@@H]1C[C@@H](O)[C@@H]2O |  |  |  |  |  |  |  |  |  |  |  | 116 | 114 | 106 | 114 | 114 | 107 | 123 | 117 | 118 | 118 | 115 | 115 | 121 | 129 | 125 | 120 | 110 | 114 | 113 | 110 | 105 | 95.9
Cc1[nH]c(/C=C2\C(=O)Nc3ccccc32)c(C)c1CCC(=O)O | 92.3 | 101 | 108 | 114 | 113 | 106 | 99.9 | 118 | 105 | 51.3 | 23.8 | 95.9 | 112 | 108 | 114 | 115 | 123 | 111 | 104 | 110 | 58.7 | 18.4 | 97 | 118 | 96.1 | 98.1 | 113 | 106 | 102 | 109 | 103 | 101 | 22.7
CN[C@@H]1Cc2cccc3[nH]c(=O)n(c23)C1 |  |  |  |  |  |  |  |  |  |  |  | 112 | 113 | 118 | 110 | 107 | 105 | 108 | 106 | 105 | 102 | 103 |  |  |  |  |  |  |  |  |  |  | 
Nc1nnc(-c2cccc(Cl)c2Cl)c(N)n1 | 95.9 | 89.7 | 97.6 | 33 | 107 | 113 | 112 | 98.9 | 121 | 108 | 115 | 89.2 | 86.6 | 93.5 | 23.7 | 112 | 96.5 | 88.4 | 96.1 | 102 | 95.2 | 102 | 76 | 89.2 | 94 | 43.7 | 96.2 | 93.1 | 99 | 108 | 103 | 98.6 | 99.1
CC[C@H](C)C(=O)O[C@H]1C[C@H](O)\C=C2\C=C/[C@H](C)[C@H](CC[C@@H](O)C[C@@H](O)CC(O)=O)[C@@H]12 | 123 | 116 | 118 | 119 | 125 | 123 | 110 | 101 | 103 | 104 | 84.1 | 114 | 111 | 118 | 106 | 117 | 126 | 116 | 116 | 104 | 105 | 102 | 105 | 110 | 117 | 104 | 101 | 110 | 112 | 101 | 103 | 107 | 99
CC/1=C(/C(CC(=O)N1)C2=CC=C(C=C2)C(F)(F)F)C(=O)NC3=C(F)C=C4[NH]N=CC4=C3 (stereo not given) | 94.2 | 94.5 | 103 | 108 | 104 | 100 | 105 | 98.6 | 96.1 | 33.6 | 11.5 | 92 | 92.7 | 85.7 | 81.2 | 89.6 | 86 | 86.9 | 82.4 | 84.2 | 66.7 | 23.9 | 91.7 | 89.1 | 104 | 96.1 | 95 | 84.7 | 97.5 | 95.3 | 92.1 | 58 | 28
O=C(O)/C=C/c1ccc(O)c(O)c1 | 104 | 125 | 104 | 107 | 127 | 124 | 118 | 118 | 104 | 94.7 | 67 | 124 | 100 | 109 | 107 | 97.9 | 98.9 | 92.5 | 111 | 101 | 92.2 | 25.2 | 105 | 118 | 106 | 102 | 106 | 115 | 107 | 112 | 101 | 105 | 47.9
Cn1c(=O)n(-c2ccc(C(C)(C)C#N)cc2)c2c3cc(-c4cnc5ccccc5c4)ccc3ncc21 | 99.4 | 99.2 | 105 | 97.5 | 91.2 | 89.2 | 61.1 | 37.4 | 41.9 | 33.9 | 32.2 | 103 | 114 | 104 | 102 | 106 | 99.9 | 89.8 | 52.4 | 28.7 | 19.8 | 27.1 | 102 | 120 | 111 | 112 | 94.9 | 73.4 | 66.4 | 49.3 | 33.7 | 22.6 | 30.5
CCC(=O)N[C@H]1CC[C@H](C(=O)N(C)c2ccc(-c3nc4ccccc4o3)cc2)C1 | 85.7 | 106 | 74.4 | 111 | 103 | 92.5 | 97.6 | 98.2 | 101 | 98.5 | 78.3 | 95.8 | 100 | 89.6 | 85.1 | 99.4 | 101 | 97.4 | 94.2 | 86 | 88.6 | 96.9 | 83.8 | 89.2 | 89.8 | 87.8 | 86.1 | 86 | 94.1 | 90.4 | 84.6 | 81 | 84.6
CC1(C)CNc2cc(NC(=O)c3cccnc3NCc3ccncc3)ccc21 | 131 | 118 | 112 | 137 | 108 | 105 | 112 | 113 | 109 | 94.6 | 91.8 | 115 | 119 | 134 | 124 | 120 | 118 | 124 | 120 | 103 | 120 | 118 | 116 | 110 | 120 | 112 | 107 | 96.3 | 114 | 115 | 113 | 105 | 115
